The data set in a line: gradient 5% acetonitrile 3 min, to 50% in 2 min, to 85% in 15 min, held 3 min, 100 µL/min. To be noted: column: Zorbax Extend-C18 2.1 x 50 mm; eluents: water / acetonitrile, 0.1% formic acid. The method in brief: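 Values are retention times taken from adduct peaks that software picked and an analyst inspected. The pure standards were run as mixtures of ~100 molecules on HPLC linked to a quadrupole time-of-flight mass spectrometer, in positive and negative ionization mode. A Zorbax Extend-C18 column (2.1 × 50 mm, 1.8 μm) was used at 100 μL/min with water and acetonitrile, each including 0.1% formic acid.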
The compound `O=C(CN1C(=O)C(C(=O)N2CCCC2)Sc2ccccc21)NCc1ccccc1Cl` (centres undefined) registered an RP-LC retention time of 928 s.

As to `CC1=C(c2ccc(C)cc2)S(=O)(=O)N=C1N1CCCN(C(=O)c2ccco2)CC1`, the RP-LC retention time was 653 s.

`CC(C)(C)C(=O)N1CCC(OC2CCN(Cc3ccccc3)CC2)CC1` registered an RP-LC retention time of 638 s.

With `CC(NC(=O)c1cn(C)c2ncccc12)c1cccnc1` (centres undefined), the RP-LC retention time was found to be 555 s.

`CCOC(=O)c1cccc(Nc2c(C(=O)N3CCC(C)CC3)cnc3nc(C)ccc23)c1` registered an RP-LC retention time of 666 s.

With `NS(=O)(=O)c1ccc(NC2(C(=O)O)CCCC2)cc1`, the RP-LC retention time worked out at 1010 s.

Take `CCN(C(=O)Cn1c(N2CCCCC2)nc(C)cc1=O)c1ccccc1`: the RP-LC retention time was 661 s.

`O=C(NCC1CCCO1)c1cn(-c2cc(-c3nc(C4CC4)no3)ccn2)cn1` (centres undefined) gave an RP-LC retention time of 762 s.

In the case of `Cc1cc(C)n2nc(SCC(=O)NC3CCC(C)CC3)nc2n1` (centres undefined), the RP-LC retention time was found to be 752 s.

The compound `Cc1cc(S(=O)(=O)N2CCC(n3cnnc3-c3ccccc3)CC2)ccc1Cl` yielded an RP-LC retention time of 869 s.

Regarding `CCN1CCN(c2nccc(-c3cnc4nc(-c5ccccc5)nn4c3C)n2)CC1`, the RP-LC retention time stood at 633 s.

`Cc1noc(-c2ccc(=O)n(Cc3nc(-c4ccccc4)oc3C)c2)n1` returned an RP-LC retention time of 804 s.

As for `O=C(NCCN1CCCC1)c1ccc2nc(-c3ccccc3)cn2c1`, the RP-LC retention time is 552 s.

With `Fc1cccc(-c2nn3c(-c4ccc5ccccc5n4)nnc3s2)c1`, the RP-LC retention time is 987 s.

The compound `Cc1ccc(C)c(Nc2c(-c3ccc(N(C)C)cc3)nc3ncccn23)c1` displayed an RP-LC retention time of 996 s.

`CCCNc1cc(N2CCCC(CCC(=O)N3CCN(CC(C)C)CC3)C2)ncn1` (centres undefined): the RP-LC retention time was found to be 552 s.

For the compound `Cc1nc(OCC(=O)Nc2cccc(C)c2C)c2ccccc2n1`, the RP-LC retention time amounted to 737 s.

`Cc1ccc(C)c2sc(NCc3ccccn3)nc12` had an RP-LC retention time of 641 s.

Turning to `O=C(Cn1c(C2CCCO2)nc2ccccc21)Nc1ccccc1` (centres undefined), the RP-LC retention time turned out to be 638 s.

The compound `O=C(CN1N=C(C(=O)Nc2ccc(F)cc2)CCC1=O)Nc1cc(F)ccc1F` had an RP-LC retention time of 831 s.

For `CCSc1nnc(-c2nn(C)c3c2CN(S(=O)(=O)c2cc(F)ccc2F)CC3)n1CC`, the RP-LC retention time worked out at 949 s.

Take `Cc1ccc2c(c1)c1c(n2CC(O)Cn2nc(C)cc2C)CCCC1` (centres undefined): the RP-LC retention time came to 1050 s.

In the case of `CCc1ccc(S(=O)(=O)N2CCn3c(nnc3C3CCN(C(C)C)C3)C2)cc1` (centres undefined), the RP-LC retention time was determined as 571 s.

`Cc1ccc(C)c(N2CCN(C(=O)c3c(C)oc4nc(C)nc(N5CCOCC5)c34)CC2)c1` returned an RP-LC retention time of 1020 s.

`Cc1ccc(CNC(=O)N2CC(N(CC3CC3)C3CCOCC3)C2)cc1` gave an RP-LC retention time of 582 s.

The compound `c1ccc(OCc2cn(CCC3CCCCN3)nn2)cc1` (centres undefined) had an RP-LC retention time of 552 s.

Compound `O=c1c2sccc2n(Cc2nc(-c3ccc(Cl)c(F)c3)no2)c(=O)n1-c1ccc(F)cc1` showed an RP-LC retention time of 1080 s.

`Cc1cccc2c(C(N)=O)cc(N3CCN(C)CC3)nc12`: the RP-LC retention time is 579 s.

The compound `O=C(CCc1csc(NC(=O)c2cccs2)n1)Nc1ccc(F)c(Cl)c1` yielded an RP-LC retention time of 869 s.

For the compound `Cc1ccc(CNC(=O)C2(C)CCCN(C(=O)Nc3ccc(F)cc3)C2)cc1` (centres undefined), the RP-LC retention time was 899 s.

`Cc1nc(C2(C)CCN(S(=O)(=O)c3c(C)c(C)cc(C)c3C)CC2)no1` showed an RP-LC retention time of 1140 s.

`Cc1ccc(F)cc1S(=O)(=O)N1CCC2(C1)C(=O)Nc1ccccc12` (centres undefined) displayed an RP-LC retention time of 866 s.

The compound `CCOc1cc(CNC(=O)c2ccc3c(c2)N(C)C(=O)c2ccccc2O3)cc(OCC)c1OCC` returned an RP-LC retention time of 973 s.

On to `Cc1ccc(N2C(=O)CC(N3CCC(C(N)=O)CC3)C2=O)c(Cl)c1` (centres undefined), for which the RP-LC retention time was 614 s.

Compound `CCN1C(=O)C2(CCN(S(=O)(=O)c3cc(F)ccc3C)CC2)c2ccccc21` showed an RP-LC retention time of 1130 s.

As to `COc1ccc(NC(=O)Cn2c(C)cc(-c3nnc(-c4ccc(F)cc4)o3)c2C)cc1`, the RP-LC retention time worked out at 952 s.

Regarding `O=C(Cc1c(F)cccc1Cl)N1C[C@@H]2C[C@H]1C[C@@H]2NS(=O)(=O)c1ccccc1`, the RP-LC retention time stood at 852 s.

On to `CCC(C)(C)C(=O)N1CCCN(C2=NS(=O)(=O)C(c3ccc(C)cc3)=C2C)CC1`, for which the RP-LC retention time was 915 s.

As for `Cc1ccc(-c2noc(-c3cccc(S(=O)(=O)NCc4ccccc4)c3)n2)cc1`, the RP-LC retention time was 1210 s.

The compound `COc1ccc(S(=O)(=O)N2CCCC(C(=O)Nc3cccc(C)c3)C2)cc1Cl` (centres undefined) had an RP-LC retention time of 1060 s.

Consider `COc1ccc(-c2nnc(N3CCC(C(=O)NC(C)c4ccc(OC)cc4)CC3)o2)cc1` (centres undefined), for which the RP-LC retention time amounted to 815 s.

`Cc1nc2nc(-c3ccc(C(C)(C)C)cc3)nn2c(C)c1CC(=O)N1CCc2ccccc2C1` yielded an RP-LC retention time of 1120 s.

`COc1ccc(Cl)cc1S(=O)(=O)NCC1CCN(c2ncccn2)CC1` displayed an RP-LC retention time of 772 s.

`CCC(=O)N1CCc2cc(N3CC(C(=O)NCc4ccccc4C)CC3=O)ccc21` (centres undefined) had an RP-LC retention time of 750 s.

As for `Cc1ccc(NC(=O)Cn2c(C)nc(C)c(C)c2=O)cc1C`, the RP-LC retention time is 690 s.

With `Cn1ccnc1C(=O)N1CC(n2cc(C(=O)N3CCOCC3)nn2)C1`, the RP-LC retention time amounted to 581 s.

Turning to `CSc1ccc(-c2noc(Cn3cnc4c(cnn4-c4ccc(C)c(Cl)c4)c3=O)n2)cc1`, the RP-LC retention time came to 1270 s.

The compound `Cc1noc(-c2ccc(OC3CN(C(=O)Nc4cccc(F)c4)C3)cc2)n1` showed an RP-LC retention time of 838 s.

In turn, `Cc1ccn2c(Nc3ccccc3C)c(-c3cccc(Br)c3)nc2c1` yielded an RP-LC retention time of 819 s.

Consider `Cn1nc(-c2ccc(F)cc2)cc1C(=O)NCCN1CCN(C(=O)c2cccs2)CC1`, for which the RP-LC retention time is 593 s.

Take `CC(C)n1c(N2CCN(C(=O)c3ccc4c(c3)OCO4)CC2)cc(=O)n(C(C)C)c1=O`: the RP-LC retention time amounted to 823 s.

Regarding `CCOC(=O)c1nnn(-c2ccccc2OCC)c1C(=O)OCC`, the RP-LC retention time turned out to be 970 s.

Turning to `COCCN1CCn2cc(S(=O)(=O)Nc3cccc(Cl)c3)cc2C1=O`, the RP-LC retention time is 718 s.

The compound `CNCc1ccc(-c2[nH]c3cc(F)cc4c3c2CCNC4=O)cc1` returned an RP-LC retention time of 642 s.

In turn, `CC(C)n1cc(C2=CCN(S(=O)(=O)Cc3ccccc3)CC2)c2cccnc21` yielded an RP-LC retention time of 1020 s.

As to `CN1CCCc2cc(C(CNC(=O)C(=O)Nc3ccc4c(c3)OCCO4)N3CCCCC3)ccc21` (centres undefined), the RP-LC retention time amounted to 742 s.

Compound `CCc1ccc(NS(=O)(=O)c2cc(-c3[nH]ncc3C(=O)N3CCOCC3)oc2C)cc1` gave an RP-LC retention time of 721 s.

As to `CCOc1ccc(S(=O)(=O)N2CCC(c3noc(-c4cccc(OC)c4)n3)CC2)cc1`, the RP-LC retention time was 1150 s.

`COc1cccc2c(C)nc(NC3=NCN(Cc4ccc5c(c4)OCO5)CN3)nc12` displayed an RP-LC retention time of 700 s.

Compound `COC(=O)CNC(=O)N1CCC(N2CCN(Cc3ccc(C)cc3)C(=O)C2=O)CC1` came in with an RP-LC retention time of 644 s.

Compound `CCn1cc(-c2nc(CC(=O)NC3CCCC3)cs2)c2cccnc21` gave an RP-LC retention time of 848 s.

`Cc1cccc(OCc2nc(CCN(C)C(=O)NCc3ccco3)no2)c1` yielded an RP-LC retention time of 844 s.

`COCCCNC(=O)CCc1nnc2ccc(-c3ccc(C)c(C)c3)nn12` displayed an RP-LC retention time of 718 s.

`Cc1cc(C)cc(NC(=O)NCC2CCOCC2)c1` came in with an RP-LC retention time of 752 s.

In the case of `CSc1cccc(NC(=O)Cn2c(C)nc3c(sc4nc(-c5ccccc5)ccc43)c2=O)c1`, the RP-LC retention time was 1100 s.

The compound `CCOc1cc(-c2noc(-c3nnn4c3COC(c3ccc(F)cc3)C4)n2)ccc1OC` (centres undefined) yielded an RP-LC retention time of 1130 s.

The compound `COc1ccc(-c2nc3nc(C)cc(C)n3c2Nc2ccccc2C)cc1` had an RP-LC retention time of 742 s.

As for `CCC(C)NC(=O)Cn1cnc2nc(N3CCCC(C(=O)NC)C3)sc2c1=O` (centres undefined), the RP-LC retention time came out at 608 s.

On to `O=C(NCc1ccccc1)c1c(O)c2cccnc2n(-c2cccc(F)c2)c1=O`, for which the RP-LC retention time was 1160 s.

In turn, `COc1cc(Cl)ccc1C(=O)N1CCN(c2cc(-c3ccc(Cl)cc3)[nH]n2)CC1` displayed an RP-LC retention time of 923 s.

`O=C(Cn1c(=O)c2cc(C3CC3)nn2c2ncccc21)Nc1ccc2c(c1)OCCO2`: the RP-LC retention time stood at 736 s.

In turn, `CCOC(=O)c1ccc(NC(=O)N2CCCC2c2cc(CC)no2)cc1` (centres undefined) registered an RP-LC retention time of 856 s.

Regarding `CCN1C(=O)C(CC(=O)NCC(C)C)Sc2ncccc21` (centres undefined), the RP-LC retention time worked out at 689 s.

As for `COC(=O)c1ccccc1NC(=O)C1(c2cccs2)CCOCC1`, the RP-LC retention time came out at 1030 s.

For the compound `COCCN(CC(=O)N1CCc2sccc2C1COc1ccc(Cl)cc1)C(=O)C1CC1` (centres undefined), the RP-LC retention time is 931 s.

The compound `CC1(C(=O)NCc2cccc(F)c2)CCCN(S(=O)(=O)c2ccc(F)cc2)C1` (centres undefined) showed an RP-LC retention time of 948 s.

For `COc1cc(-c2nc3cc(C)ccn3c2Nc2ccc(C)cc2)ccc1O`, the RP-LC retention time was determined as 686 s.

Consider `O=C(c1ccoc1)N1CCc2[nH]cnc2C1c1ccccc1` (centres undefined), for which the RP-LC retention time was 585 s.

In turn, `COc1ccc(OC)c(-c2cn3ccn(-c4cc(C)cc(C)c4)c(=O)c3n2)c1` gave an RP-LC retention time of 975 s.

The values above are taken from the METLIN SMRT retention time set (Domingo-Almenara et al. 2019).
